Experimental data published in ChEMBL document CHEMBL5465560, “Selectivity Literature for EUbOPEN Chemogenomic Library” (2024).

Columns and labels:
[1] = biological target: Myosin light chain kinase, smooth muscle (Homo sapiens, UniProt Q15746); test: Selectivity interaction (KinomeScan (DiscoverX)) EUB0000595a MYLK; settings: at 10 µM
[2] = biological target: T1, Dual specificity tyrosine-phosphorylation-regulated kinase 2 (Homo sapiens) (UniProt Q92630); test: Selectivity interaction (Kinase panel (DSF assay)) EUB0001559a DYRK2
T1 sequence (whole entry): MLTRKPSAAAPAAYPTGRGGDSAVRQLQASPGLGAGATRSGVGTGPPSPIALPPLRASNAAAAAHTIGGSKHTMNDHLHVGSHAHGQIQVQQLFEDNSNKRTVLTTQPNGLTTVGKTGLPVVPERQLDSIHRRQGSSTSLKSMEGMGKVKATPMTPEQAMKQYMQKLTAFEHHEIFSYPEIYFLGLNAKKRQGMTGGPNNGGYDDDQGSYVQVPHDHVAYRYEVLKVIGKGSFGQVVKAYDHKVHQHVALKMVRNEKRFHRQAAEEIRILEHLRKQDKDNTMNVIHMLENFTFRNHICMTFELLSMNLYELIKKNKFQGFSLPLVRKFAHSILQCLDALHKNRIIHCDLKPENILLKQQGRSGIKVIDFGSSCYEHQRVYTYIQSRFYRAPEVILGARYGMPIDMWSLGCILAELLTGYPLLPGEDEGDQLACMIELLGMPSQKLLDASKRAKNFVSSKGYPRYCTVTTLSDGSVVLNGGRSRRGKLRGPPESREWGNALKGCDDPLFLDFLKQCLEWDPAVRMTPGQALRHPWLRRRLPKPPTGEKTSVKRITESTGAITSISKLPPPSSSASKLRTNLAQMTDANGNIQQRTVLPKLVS

[3] = biological target: Serine/threonine-protein kinase PAK 6 (Homo sapiens) (UniProt Q9NQU5); test: Selectivity interaction (KinomeScan (DiscoverX)) EUB0000045b PAK6; settings: at 1 µM
[4] = biological target: T2, Serine/threonine-protein kinase MAK (Homo sapiens) (UniProt P20794); test: Selectivity interaction (KinomeScan (DiscoverX)) EUB0001079a MAK; settings: at 1 µM
T2 sequence (whole entry): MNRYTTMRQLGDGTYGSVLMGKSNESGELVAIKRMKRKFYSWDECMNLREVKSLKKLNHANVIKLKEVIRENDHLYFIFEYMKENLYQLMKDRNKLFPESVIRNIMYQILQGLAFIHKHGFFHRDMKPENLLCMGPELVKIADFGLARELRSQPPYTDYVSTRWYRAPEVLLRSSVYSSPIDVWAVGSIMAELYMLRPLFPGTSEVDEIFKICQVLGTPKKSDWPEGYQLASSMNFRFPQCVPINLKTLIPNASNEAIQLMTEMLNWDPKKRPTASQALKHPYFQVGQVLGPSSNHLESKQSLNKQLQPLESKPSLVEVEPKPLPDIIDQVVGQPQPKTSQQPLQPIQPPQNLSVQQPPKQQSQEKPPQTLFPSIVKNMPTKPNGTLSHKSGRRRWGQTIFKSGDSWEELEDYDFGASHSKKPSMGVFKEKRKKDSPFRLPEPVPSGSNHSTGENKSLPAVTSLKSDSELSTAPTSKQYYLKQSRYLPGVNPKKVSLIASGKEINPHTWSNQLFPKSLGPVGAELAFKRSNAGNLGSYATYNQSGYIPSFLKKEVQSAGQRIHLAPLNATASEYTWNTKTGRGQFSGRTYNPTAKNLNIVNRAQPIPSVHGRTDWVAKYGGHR

[5] = biological target: Platelet-derived growth factor receptor beta (Homo sapiens, UniProt P09619); test: Selectivity interaction (KinomeScan (DiscoverX)) EUB0001079a PDGFRB; settings: at 1 µM
[6] = biological target: Mitogen-activated protein kinase kinase kinase 14 (Homo sapiens) (UniProt Q99558); test: Selectivity interaction (KinomeScan (DiscoverX)) EUB0001049a MAP3K14; settings: at 1 µM
[7] = biological target: T3, NUAK family SNF1-like kinase 1 (Homo sapiens) (UniProt O60285); test: Selectivity interaction (KinomeScan (DiscoverX)) EUB0001049a NUAK1; settings: at 1 µM
T3 sequence (whole entry): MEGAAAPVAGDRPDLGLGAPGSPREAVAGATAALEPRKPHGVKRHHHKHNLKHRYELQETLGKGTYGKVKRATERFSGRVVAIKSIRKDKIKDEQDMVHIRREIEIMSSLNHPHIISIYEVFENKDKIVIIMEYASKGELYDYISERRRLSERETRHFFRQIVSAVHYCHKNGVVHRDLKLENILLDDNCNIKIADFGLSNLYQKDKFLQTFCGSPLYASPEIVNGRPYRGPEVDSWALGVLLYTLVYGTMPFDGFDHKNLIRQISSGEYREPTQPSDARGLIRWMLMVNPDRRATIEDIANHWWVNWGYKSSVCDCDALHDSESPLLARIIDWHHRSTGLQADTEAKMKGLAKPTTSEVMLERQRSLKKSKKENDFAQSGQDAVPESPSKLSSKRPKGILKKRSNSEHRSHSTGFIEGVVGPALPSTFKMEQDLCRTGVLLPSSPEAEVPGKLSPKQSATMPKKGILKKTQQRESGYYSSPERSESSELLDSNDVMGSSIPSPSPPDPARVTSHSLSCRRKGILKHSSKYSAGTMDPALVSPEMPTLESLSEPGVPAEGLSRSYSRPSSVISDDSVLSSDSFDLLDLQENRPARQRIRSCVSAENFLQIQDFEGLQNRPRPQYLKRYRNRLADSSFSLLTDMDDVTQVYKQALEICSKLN

[8] = biological target: T4, Cyclin-dependent kinase-like 2 (Homo sapiens) (UniProt Q92772); test: Selectivity interaction (KinomeScan (DiscoverX)) EUB0000618a CDKL2; settings: at 10 µM
T4 sequence (whole entry): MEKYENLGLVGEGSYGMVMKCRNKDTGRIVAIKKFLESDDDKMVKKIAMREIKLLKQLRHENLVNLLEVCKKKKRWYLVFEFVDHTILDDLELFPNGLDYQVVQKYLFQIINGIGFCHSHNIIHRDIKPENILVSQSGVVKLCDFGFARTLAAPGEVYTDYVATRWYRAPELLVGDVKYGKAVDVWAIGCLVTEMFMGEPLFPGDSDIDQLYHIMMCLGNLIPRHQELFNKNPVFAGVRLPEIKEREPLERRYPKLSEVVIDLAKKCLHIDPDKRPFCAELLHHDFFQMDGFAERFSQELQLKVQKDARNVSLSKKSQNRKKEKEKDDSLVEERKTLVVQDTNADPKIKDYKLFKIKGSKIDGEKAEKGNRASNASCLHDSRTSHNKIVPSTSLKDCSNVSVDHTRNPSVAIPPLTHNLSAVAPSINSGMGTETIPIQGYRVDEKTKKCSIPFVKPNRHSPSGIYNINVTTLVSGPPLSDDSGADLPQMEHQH

[9] = biological target: Serine/threonine-protein kinase PLK1 (Homo sapiens, UniProt P53350); test: Selectivity interaction (ActivX KiNativ screen (kinase selectivity in THP-1 cell lysates)) EUB0000639a PLK1; format: subcellular; settings: lysate
[10] = biological target: Tyrosine-protein kinase JAK1 (Homo sapiens, UniProt P23458); test: Selectivity interaction (Ambit KINOMEscan and KiNATiv profiling in Jurkat cells) EUB0000090b JAK1; format: cell-based; settings: at 1 µM

Serine/threonine-protein kinase PLK1, sequence (P53350 whole entry): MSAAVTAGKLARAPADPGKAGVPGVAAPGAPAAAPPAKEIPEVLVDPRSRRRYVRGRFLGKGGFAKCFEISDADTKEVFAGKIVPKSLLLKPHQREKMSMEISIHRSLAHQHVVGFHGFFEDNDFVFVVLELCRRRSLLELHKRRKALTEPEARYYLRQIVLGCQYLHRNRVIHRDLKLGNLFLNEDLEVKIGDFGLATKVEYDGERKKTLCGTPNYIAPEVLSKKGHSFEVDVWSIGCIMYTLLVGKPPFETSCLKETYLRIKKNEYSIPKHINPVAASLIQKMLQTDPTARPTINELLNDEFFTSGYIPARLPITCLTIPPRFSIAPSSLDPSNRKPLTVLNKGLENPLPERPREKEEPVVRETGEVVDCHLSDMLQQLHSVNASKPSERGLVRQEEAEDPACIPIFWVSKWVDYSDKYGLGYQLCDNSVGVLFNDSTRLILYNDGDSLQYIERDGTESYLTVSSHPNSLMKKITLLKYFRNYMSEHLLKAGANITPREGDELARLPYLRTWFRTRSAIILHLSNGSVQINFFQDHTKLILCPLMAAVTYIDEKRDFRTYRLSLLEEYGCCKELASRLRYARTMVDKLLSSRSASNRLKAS
Mitogen-activated protein kinase kinase kinase 14 (Homo sapiens), sequence (Q99558 whole entry, looked up): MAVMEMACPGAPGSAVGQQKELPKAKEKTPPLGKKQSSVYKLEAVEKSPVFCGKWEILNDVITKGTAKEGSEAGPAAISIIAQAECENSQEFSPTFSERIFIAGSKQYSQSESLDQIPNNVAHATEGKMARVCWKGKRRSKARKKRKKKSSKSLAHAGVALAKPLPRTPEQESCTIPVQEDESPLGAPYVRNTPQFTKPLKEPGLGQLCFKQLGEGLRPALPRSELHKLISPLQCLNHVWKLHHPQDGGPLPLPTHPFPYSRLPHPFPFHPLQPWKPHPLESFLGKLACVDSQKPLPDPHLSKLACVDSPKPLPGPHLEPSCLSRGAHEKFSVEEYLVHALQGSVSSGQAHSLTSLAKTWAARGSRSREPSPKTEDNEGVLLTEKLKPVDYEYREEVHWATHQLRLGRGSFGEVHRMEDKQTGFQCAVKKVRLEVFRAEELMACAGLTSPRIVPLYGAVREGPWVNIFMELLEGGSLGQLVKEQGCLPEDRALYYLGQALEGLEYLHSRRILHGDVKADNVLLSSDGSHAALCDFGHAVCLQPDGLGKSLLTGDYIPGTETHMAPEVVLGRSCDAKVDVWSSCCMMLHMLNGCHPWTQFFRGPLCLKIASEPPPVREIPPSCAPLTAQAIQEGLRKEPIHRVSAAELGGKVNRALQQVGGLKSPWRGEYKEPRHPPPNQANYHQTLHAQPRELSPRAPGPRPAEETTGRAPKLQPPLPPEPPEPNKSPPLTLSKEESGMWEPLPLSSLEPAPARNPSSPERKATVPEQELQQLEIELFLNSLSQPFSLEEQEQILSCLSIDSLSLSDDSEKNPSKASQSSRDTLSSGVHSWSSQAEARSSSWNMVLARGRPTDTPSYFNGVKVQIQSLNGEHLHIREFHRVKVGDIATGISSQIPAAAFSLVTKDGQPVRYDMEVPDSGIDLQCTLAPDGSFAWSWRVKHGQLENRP
Myosin light chain kinase, smooth muscle, sequence (Q15746 whole entry): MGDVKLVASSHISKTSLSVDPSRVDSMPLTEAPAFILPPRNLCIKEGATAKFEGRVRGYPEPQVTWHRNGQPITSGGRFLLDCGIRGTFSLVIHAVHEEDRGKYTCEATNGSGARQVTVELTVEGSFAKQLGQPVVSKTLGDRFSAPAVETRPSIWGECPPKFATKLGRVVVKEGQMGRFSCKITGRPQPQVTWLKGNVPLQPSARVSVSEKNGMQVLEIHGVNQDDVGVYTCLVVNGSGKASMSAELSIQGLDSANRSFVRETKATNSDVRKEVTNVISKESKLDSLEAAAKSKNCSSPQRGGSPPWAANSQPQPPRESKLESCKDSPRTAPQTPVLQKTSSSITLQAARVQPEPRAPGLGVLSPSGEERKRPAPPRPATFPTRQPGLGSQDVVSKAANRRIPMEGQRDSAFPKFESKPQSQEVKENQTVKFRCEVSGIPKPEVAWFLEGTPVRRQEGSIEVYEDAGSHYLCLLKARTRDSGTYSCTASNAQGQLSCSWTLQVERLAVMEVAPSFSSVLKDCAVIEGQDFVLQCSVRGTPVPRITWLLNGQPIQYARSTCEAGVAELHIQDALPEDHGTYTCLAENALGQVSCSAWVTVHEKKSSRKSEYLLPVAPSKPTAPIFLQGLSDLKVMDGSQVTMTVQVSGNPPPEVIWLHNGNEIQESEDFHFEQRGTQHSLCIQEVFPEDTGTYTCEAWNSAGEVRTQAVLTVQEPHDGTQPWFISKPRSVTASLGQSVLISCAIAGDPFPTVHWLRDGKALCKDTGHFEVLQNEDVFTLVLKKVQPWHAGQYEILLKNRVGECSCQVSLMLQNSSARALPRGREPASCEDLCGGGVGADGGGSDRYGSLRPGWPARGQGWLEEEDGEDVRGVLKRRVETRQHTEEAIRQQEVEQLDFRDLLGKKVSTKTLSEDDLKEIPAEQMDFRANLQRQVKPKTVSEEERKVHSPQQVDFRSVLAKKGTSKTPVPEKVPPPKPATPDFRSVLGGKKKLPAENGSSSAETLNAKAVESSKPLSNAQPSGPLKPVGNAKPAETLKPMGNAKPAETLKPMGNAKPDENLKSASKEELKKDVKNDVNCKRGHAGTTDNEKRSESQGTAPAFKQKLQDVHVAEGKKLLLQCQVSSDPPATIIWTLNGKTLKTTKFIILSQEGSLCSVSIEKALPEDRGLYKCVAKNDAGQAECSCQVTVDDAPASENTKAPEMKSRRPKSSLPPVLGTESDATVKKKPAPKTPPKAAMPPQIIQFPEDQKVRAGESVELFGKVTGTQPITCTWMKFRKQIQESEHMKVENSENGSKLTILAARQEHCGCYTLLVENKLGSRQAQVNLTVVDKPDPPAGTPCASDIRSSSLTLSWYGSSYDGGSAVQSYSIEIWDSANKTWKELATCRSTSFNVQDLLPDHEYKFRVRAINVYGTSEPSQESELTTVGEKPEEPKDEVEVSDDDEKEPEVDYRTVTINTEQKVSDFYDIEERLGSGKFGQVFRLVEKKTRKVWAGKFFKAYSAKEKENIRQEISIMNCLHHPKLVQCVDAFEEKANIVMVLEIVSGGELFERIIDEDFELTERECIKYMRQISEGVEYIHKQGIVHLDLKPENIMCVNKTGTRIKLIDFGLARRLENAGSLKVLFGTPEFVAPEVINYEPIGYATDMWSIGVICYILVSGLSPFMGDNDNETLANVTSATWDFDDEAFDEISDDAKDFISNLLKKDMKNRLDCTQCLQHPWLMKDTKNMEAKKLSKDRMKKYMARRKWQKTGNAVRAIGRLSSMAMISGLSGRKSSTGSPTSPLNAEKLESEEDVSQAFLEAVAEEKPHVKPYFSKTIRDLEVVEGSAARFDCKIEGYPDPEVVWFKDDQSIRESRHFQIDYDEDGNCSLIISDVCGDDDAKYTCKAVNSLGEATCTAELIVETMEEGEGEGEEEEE
Serine/threonine-protein kinase PAK 6 (Homo sapiens), sequence (Q9NQU5 whole entry, looked up): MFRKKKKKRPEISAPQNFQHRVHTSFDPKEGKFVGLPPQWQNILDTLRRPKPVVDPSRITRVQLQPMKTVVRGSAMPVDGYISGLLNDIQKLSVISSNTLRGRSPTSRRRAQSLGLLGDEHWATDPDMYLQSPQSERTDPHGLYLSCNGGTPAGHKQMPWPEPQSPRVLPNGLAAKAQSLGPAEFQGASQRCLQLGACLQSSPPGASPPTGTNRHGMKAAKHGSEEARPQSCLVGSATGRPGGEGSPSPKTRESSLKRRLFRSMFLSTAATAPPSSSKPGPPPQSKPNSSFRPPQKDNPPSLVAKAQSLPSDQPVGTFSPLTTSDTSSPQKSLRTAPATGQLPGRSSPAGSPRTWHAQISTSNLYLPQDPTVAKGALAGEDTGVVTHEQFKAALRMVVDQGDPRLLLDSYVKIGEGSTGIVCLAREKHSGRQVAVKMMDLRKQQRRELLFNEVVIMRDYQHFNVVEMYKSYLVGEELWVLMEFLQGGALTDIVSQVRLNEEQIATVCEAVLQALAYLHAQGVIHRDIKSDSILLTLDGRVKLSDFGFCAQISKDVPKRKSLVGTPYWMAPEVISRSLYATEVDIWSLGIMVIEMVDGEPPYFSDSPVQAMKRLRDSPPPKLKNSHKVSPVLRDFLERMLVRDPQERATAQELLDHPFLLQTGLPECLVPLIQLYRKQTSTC

## COCC(=O)NC/C=C/c1ccc2ncnc(Nc3ccc(Oc4ccc(C)nc4)c(C)c3)c2c1 [CP-724714]
[1]
  % of control: 87%

## CN(C(=O)c1cnn2cccnc12)c1cc2c(cc1N1CCOCC1)C(=O)N(C[C@@H](F)C(C)(C)O)C2
[2]
  dTM: -0.4 K

## C=CC(=O)Nc1cc(-n2c(=O)ccc3cnc4ccc(-c5ccc(NS(C)(=O)=O)cc5)cc4c32)ccc1C
[3]
  % of control: 98%

## Nc1cnc(N2CCc3cc(S(=O)(=O)Nc4c(F)cc(Cl)cc4F)cc(N4CCCC4=O)c32)nc1 [TP-020n]
[4]
  % of control: 96%
[5]
  % of control: 100%

## COc1cc(Nc2nc(C)cc(-c3cnn4nc(OC)ccc34)n2)cc(C(F)(F)F)c1
[6]
  % of control: 98%
[7]
  % of control: 100%

## O[C@H]1CC[C@H](Nc2ncc3nc(Nc4c(F)cc(F)cc4F)n([C@H]4CCOC4)c3n2)CC1
[8]
  % of control: 100%

## CC[C@@H]1[C@H](F)C(=O)N[C@@H]1COc1nccc2cc(C(N)=O)c(OC)cc12 [ZIMLOVISERTIB]
[9]; at 0.01 µM
  % of inhibition: 7.9%
[9]; at 0.04 µM
  % of inhibition: 2%
[9]; at 0.2 µM
  % of inhibition: -17.6%
[9]; at 1 µM
  % of inhibition: -0.9%
[9]; at 5 µM
  % of inhibition: -0.9%

## CN(C)C/C=C/C(=O)Nc1ccc(C(=O)N2CCCC(Nc3ncc(Cl)c(-c4c[nH]c5ccccc45)n3)C2)cc1 (centres undefined)
[10]
  % of control: 70%
